# From patent US10316050B2, “PT (IV) complexes containing 4,4′-disubstituted-2,2′-bipyridyl and their use in cancer therapy” (THE BOARD OF REGENTS OF THE NEVADA SYSTEM OF HIGHER …, priority 2014, dated 2019)
# Where two headings read alike, the source gives them in different places.
# Columns and labels:
# [1] = Solubility in DMSO and common organic solvents; type: physicochemical
# Procedure: Coordination of the axial ligands to the Pt center improved the solubility of the complexes in common organic solvents. DMSO solutions of the Pt(IV) complexes with concentrations of 10 mM or higher were obtainable, whereas the Pt(II) can only be made at the highest concentration of 5 mM.
# [2] = system: A549 lung cancer cells; assay: MTS cell viability assay, A549; type: cell-based, human; details: for EC50: read-out: EC50 (effective concentration that resulted in 50% cell viability)
# Procedure: (§1) Human breast (HCC38, MCF-7, MDA-MB-231, SK-BR-3, T-47D, and ZR-75-1), lung (A549 and H520), and prostate (DU145 and PC-3) cancer cell lines were obtained from American Culture Type Collection (ATCC). The HCC38, MCF-7, MDA-MB-231, SK-BR-3, T-47D, ZR-75-1, and A549 cells were grown in MEM supplemented with 10% FBS, 25 mM HEPES buffer (pH 7.4), penicillin (100 U/mL), and streptomycin (100 μg/mL). The H520, DU145, and PC-3 cell lines were grown in RPMI-1640 supplemented with 10% FBS, 25 mM HEPES buffer (pH 7.4), penicillin (100 U/mL), and streptomycin (100 μg/mL). All cell lines were maintained at 37° C. in a humidified, 5% CO2 atmosphere.
# (§2) Cells were cultured at a density of 2-3.5×10^3 cells per well in flat bottomed 96-well plates in 100 μL of complete growth medium and incubated for 2 days to reach ˜50% confluence. The cells were then treated with solvent or the appropriate drugs (CDDP stock was dissolved in 0.15 M NaCl, carboplatin stock was dissolved in 5% glucose, synthesized Pt(IV) complexes were dissolved in DMSO) for 1 hour, washed three times with 100 μL PBS, and incubated in 100 μL of fresh medium. After 2 days, the medium was replaced with 120 μL of medium containing CellTiter 96® Aqueous One Solution Reagent (MTS reagent) (Promega, Madison, Wis.). The cells were incubated at 37° C. for 4 hours and the cell viability was determined by measuring the absorbance at 490 nm using a Tecan Infinite M1000 microplate reader. The 48 h treatment was done in a similar manner, except the cells were not washed after treatment and the MTS reagent was immediately added. Viability of treated groups was calculated as a percent of control and graphed with GraphPad Prism.
# (§3) The anti-proliferative activities of Pt(IV) complexes were determined in two lung (A549 and H520), two prostate (DU145 and PC-3), and six breast (HCC38, MCF-7, MDA-MB-231, SK-BR-3, T-47D, and ZR-75-1) cancer cell lines. The cells were treated with increasing concentrations of cisplatin (CDDP), carboplatin, or the Pt(IV) complexes for 1 or 48 hours, and the viability was measured using an MTS colorimetric cell proliferation assay. Graphs of the results are shown for DU145 (FIG. 8A), PC-3 (FIG. 8B), SK-BR-3 (FIG. 8C), ZR-75-1 (FIG. 8D), A549 (FIG. 8E), and MCF-7 (FIG. 8F).
# [3] = system: MDA-MB-231 breast cancer cells; assay: MTS cell viability assay, MDA-MB-231; type: cell-based, human; details: read-out: EC50 (effective concentration that resulted in 50% cell viability)
# Procedure: as §1, §2, §3
# [4] = system: ZR-75-1 breast cancer cells; assay: MTS cell viability assay, ZR-75-1; type: cell-based, human; details: read-out: EC50 (effective concentration that resulted in 50% cell viability)
# Procedure: as §1, §2, §3
# [5] = system: SK-BR-3 breast cancer cells; assay: MTS cell viability assay, SK-BR-3; type: cell-based, human; details: read-out: EC50 (effective concentration that resulted in 50% cell viability)
# Procedure: as §1, §2, §3
# (§4) The anti-proliferative activities of certain Pt(II) complexes were determined in DU145, PC-3, and SK-BR-3 cells. The cells were treated with increasing concentrations of cisplatin (CDDP) or the Pt(II) complexes for 1 or 48 hours, and the viability was measured using an MTS colorimetric cell proliferation assay.
# [6] = system: HCC38 breast cancer cells; assay: MTS cell viability assay, HCC38; type: cell-based, human; details: read-out: EC50 (effective concentration that resulted in 50% cell viability)
# Procedure: as §1, §2, §3
# [7] = system: DU145 prostate cancer cells; type: cell-based, human; details: for EC50: read-out: EC50 (effective concentration that resulted in 50% cell viability)
# Procedure: as §1, §2, §3, §4
# [8] = system: PC-3 prostate cancer cells; assay: MTS cell viability assay, PC-3; type: cell-based, human; details: read-out: EC50 (effective concentration that resulted in 50% cell viability)
# Procedure: as §1, §2, §3, §4
# [9] = system: MCF-7 breast cancer cells; assay: MTS cell viability assay, MCF-7; type: cell-based, human; details: for EC50: read-out: EC50 (effective concentration that resulted in 50% cell viability)
# Procedure: as §1, §2, §3
# [10] = system: T-47D breast cancer cells; assay: MTS cell viability assay, T-47D; type: cell-based, human
# Procedure: as §1, §2, §3
# [11] = system: H520 lung cancer cells; assay: MTS cell viability assay, H520; type: cell-based, human; details: read-out: EC50 (effective concentration that resulted in 50% cell viability)
# Procedure: as §1, §2, §3
# [12] = Stability of stock solution in DMSO or ethanol; type: physicochemical; details: stock solution made in DMSO or ethanol
# Procedure: It should be noted that while the solubility of the Pt(IV) complexes in organic solvents were increased compared to their Pt(II) precursors, they were still poorly soluble in water. Thus, Pt(IV)-1C to Pt(IV)-3C were limited to a highest concentration of 100 μM. […] Testing of Pt(IV)4C therefore was limited to 25 μM.
# [13] = A549, 48 hour treatment (FIG. 8E)
# [14] = MDA-MB-231, 1 h treatment, Table 3
# [15] = ZR-75-1, 1 h treatment, Table 3
# [16] = SK-BR-3, 1 h treatment, Table 3
# [17] = DU145, 1 hour treatment (FIG. 8A, top), up to 1 mM carboplatin, 100 μM Pt(IV)-1C, 50 μM Pt(IV)-2C
# [18] = MCF-7, 48 hour treatment (FIG. 8F)
# [19] = 1 h treatment, Table 3, read-out: EC50 (effective concentration that resulted in 50% cell viability)
# [20] = 48 h, Table 5, read-out: EC50 (effective concentration that resulted in 50% cell viability)
Compound,"EC50 ([2]; A549, 1 h treatment, Table 3)","EC50 ([2]; A549, 48 h, Table 5)","EC50 [3, 14]","EC50 ([3]; MDA-MB-231, 48 h, Table 5)","EC50 [4, 15]","EC50 ([4]; ZR-75-1, 48 h, Table 5)","EC50 [5, 16]","EC50 ([5]; SK-BR-3, 48 h, Table 5)","EC50 ([6]; HCC38, 1 h treatment, Table 3)","EC50 ([6]; HCC38, 48 h, Table 5)","EC50 ([7]; DU145, 1 h treatment, Table 3)","EC50 ([7]; DU145, 48 h, Table 5)","EC50 ([8]; PC-3, 1 h treatment, Table 3)","EC50 ([8]; PC-3, 48 h, Table 5)","EC50 ([9]; MCF-7, 1 h treatment, Table 3)","EC50 ([9]; MCF-7, 48 h, Table 5)","EC50 [10, 19]","EC50 [10, 20]","EC50 ([11]; H520, 1 h treatment, Table 3)","EC50 ([11]; H520, 48 h, Table 5)",also measured
CCCCCCCCOc1ccnc(-c2cc(OCCCCCCCC)ccn2)c1.[Cl][Pt][Cl] [Pt(II)-8C],,,,,,,,,,,,,,,,,,,,,solubility in DMSO and other common organic solvents (in words) [1]: poor solubility in DMSO
"CC(=O)[O][Pt]([Cl])([Cl])[O]C(C)=O.CCOc1ccnc(-c2cc(OCC)ccn2)c1 [Pt(IV)-2C, [Pt(IV)Cl2(OAc)2(4,4′-diethoxy-2,2′-bipyridine)]]",> 50 µM,> 50 µM,> 100 µM,28 ± 7 µM,> 50 µM,17 ± 7 µM,40 ± 10 µM,8.3 ± 0.7 µM,93 ± 10 µM,30 ± 9 µM,> 50 µM,10 ± 4 µM,> 50 µM,20 ± 2 µM,> 100 µM,> 100 µM,46 ± 8 µM,0.95 ± 0.03 µM,> 100 µM,61 ± 2 µM,"effect on cell viability (in words) [2, 13]: had no effect; effect on cell viability (in words) [7, 17]: did not have any effects; effect on cell viability (in words) [9, 18]: had no effect"
"CC(=O)[O][Pt]([Cl])([Cl])[O]C(C)=O.CCCOc1ccnc(-c2cc(OCCC)ccn2)c1 [Pt(IV)-3C, [Pt(IV)Cl2(OAc)2(4,4′-dipropoxy-2,2′-bipyridine)]]",> 50 µM,23 ± 1 µM,34 ± 7 µM,6.1 ± 0.4 µM,24 ± 3 µM,1.21 ± 0.04 µM,19 ± 2 µM,0.9 ± 0.1 µM,26 ± 6 µM,8 ± 1 µM,24 ± 7 µM,1 ± 1 µM,23 ± 0.3 µM,1.1 ± 0.4 µM,> 100 µM,29 ± 2 µM,24 ± 3 µM,0.59 ± 0.01 µM,80 ± 20 µM,8 ± 6 µM,"effect on cell viability (in words) ([2]; A549, 1 hour treatment, at the concentrations tested (FIG. 8E)): did not have any effect; effect on cell viability (in words) [7, 17]: least effective among the five active compounds; effect on cell viability (in words) ([9]; MCF-7, 1 hour treatment, at the concentrations tested (FIG. 8F)): did not have any effect"
"[Pt(IV)Cl2(OAc)2(4,4′-dihexyloxy-2,2′-bipyridine)] [Pt(IV)-6C]",2.5 ± 0.2 µM,2.2 ± 0.1 µM,1.1 ± 0.2 µM,0.31 ± 0.04 µM,1.1 ± 0.4 µM,0.55 ± 0.04 µM,0.36 ± 0.02 µM,0.21 ± 0.03 µM,2.3 ± 0.2 µM,1.8 ± 0.5 µM,1.3 ± 0.2 µM,0.5 ± 0.3 µM,2 ± 0.3 µM,0.33 ± 0.04 µM,2.4 ± 0.1 µM,1.6 ± 0.2 µM,2.1 ± 0.4 µM,0.24 ± 0.01 µM,2.1 ± 0.2 µM,1 ± 0.4 µM,
"[Pt(IV)Cl2(OAc)2(4,4′-dimethoxy-2,2′-bipyridine)] [Pt(IV)-1C]",> 100 µM,> 100 µM,> 100 µM,> 100 µM,> 100 µM,> 100 µM,> 100 µM,80 ± 20 µM,> 100 µM,> 100 µM,> 100 µM,80 ± 20 µM,> 100 µM,> 100 µM,> 100 µM,> 100 µM,> 100 µM,32 ± 0.5 µM,> 100 µM,> 100 µM,"effect on cell viability (in words) [2, 13]: had no effect; effect on cell viability (in words) [7, 17]: did not have any effects; effect on cell viability (in words) ([7]; DU145, 48 hours treatment (FIG. 8A, bottom)): more effective than carboplatin; effect on cell viability (in words) [9, 18]: had no effect"
"[Pt(IV)Cl2(OAc)2(4,4′-dioctyloxy-2,2′-bipyridine)] [Pt(IV)-8C]",7 ± 0.4 µM,3 ± 0.5 µM,2.1 ± 0.2 µM,0.9 ± 0.3 µM,3 ± 1 µM,1.3 ± 0.1 µM,0.33 ± 0.05 µM,0.22 ± 0.03 µM,3 ± 0.6 µM,1.6 ± 0.3 µM,0.7 ± 0.3 µM,0.2 ± 0.1 µM,1.2 ± 0.5 µM,0.11 ± 0.02 µM,4 ± 1 µM,1.3 ± 0.3 µM,1.5 ± 0.5 µM,0.25 µM,7 ± 5 µM,1.2 ± 0.6 µM,stability of the structure in stock solution [12]: structure is stable
